According to patent US20130011361A1, “PYRAZOLE DERIVATIVES WHICH MODULATE STEAROYL-COA DESATURASE” (XENON PHARMACEUTICALS INC., priority 2009, published 2013):

Assays:
[1] = molecular target: T1, stearoyl-CoA desaturase (SCD1) (Mus musculus, UniProt P13516); experiment: SCD inhibition assay using mouse liver microsomes (release of 3H2O from [9,10-3H]stearoyl-CoA); format: biochemical; conditions: 15 min incubation, 25° C., read-out: Microsomal IC50
T1 construct: Reactions are started by adding 50 μL of microsomes (1.25 mg/mL); from tissue; host or cells: liver microsomes of male ICR outbred mice on a high-carbohydrate, low-fat diet
T1 sequence (P13516 1-355): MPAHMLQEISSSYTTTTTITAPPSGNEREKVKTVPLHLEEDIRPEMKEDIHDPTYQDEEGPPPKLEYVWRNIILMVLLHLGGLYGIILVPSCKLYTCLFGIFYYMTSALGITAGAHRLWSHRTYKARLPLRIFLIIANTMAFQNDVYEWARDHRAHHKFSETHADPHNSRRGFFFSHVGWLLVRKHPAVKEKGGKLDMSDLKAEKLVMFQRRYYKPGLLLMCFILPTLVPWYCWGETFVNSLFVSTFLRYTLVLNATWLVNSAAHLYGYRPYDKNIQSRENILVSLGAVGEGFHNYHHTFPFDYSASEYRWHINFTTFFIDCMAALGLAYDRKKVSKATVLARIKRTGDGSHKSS
Procedure: Measuring Stearoyl-CoA Desaturase Inhibition Activity of a Test Compound Using Mouse Liver Microsomes
Livers are immediately rinsed with cold 0.9% NaCl solution, weighed and minced with scissors. All procedures are performed at 4° C. unless specified otherwise. Livers are homogenized in a solution (1/3 w/v) containing 0.25 M sucrose, 62 mM potassium phosphate buffer (pH 7.0), 0.15 M KCl, 15 mM N-acetyleysteine, 5 mM MgCl2, and 0.1 mM EDTA using 4 strokes of a Potter-Elvehjem tissue homogenizer. The homogenate is centrifuged at 10,400×g for 20 min to eliminate mitochondria and cellular debris. The supernatant is filtered through a 3-layer cheesecloth and centrifuged at 105,000×g for 60 min. The microsomal pellet is gently resuspended in the same homogenization solution with a small glass/teflon homogenizer and stored at ˜70° C. The absence of mitochondrial contamination is enzymatically assessed. The protein concentration is measured using bovine serum albumin as the standard.
Desaturase activity is measured as the release of ^3H2O from [9,10-^3H]stearoyl-CoA. Reactions per assay point conditions are as follows: 2 μL 1.5 mM stearoyl-CoA, 0.25 μL 1 mCi/mL ^3H stearoyl CoA, 10 μL 20 mM NADH, 36.75 μL 0.1 M PK buffer (K2HPO4/NaH2PO4, pH 7.2). The test compound or control solution is added in a 1 μL volume. […] The plates are mixed and after 15 min incubation on a heating block (25° C.), the reactions are stopped by the addition of 10 μL 60% PCA. An aliquot of 100 μL is then transferred to a filter plate pretreated with charcoal and the plate centrifuged at 4000 rpm for 1 minute. The flow through containing the ^3H2O released by the SCD1 desaturation reaction is added to scintillation fluid and the radioactivity measured in a Packard TopCount. The data is analysed to identify the IC50 for test compounds and reference compounds.
The activity was defined in terms of % SCD enzyme activity remaining at the desired concentration of the test compound or as the IC50 concentration.

Question: Which IC50 [1] does the source give for `Cn1cc(CNC(=O)c2cc(N3CCN(Cc4ccc(F)cc4)C3=O)n[nH]2)cn1` [Example 8.1, 3-(3-(4-fluorobenzyl)-2-oxoimidazolidin-1-yl)-N-((1-methyl-1H-pyrazol-4-yl)methyl)-1H-pyrazole-5-carboxamide] here?
Answer: Its IC50 is 122 nM.

Question: And the melting point?
Answer: The melting point was 244 to 245 °C.

Question: For `O=C(NCc1ccc(F)c(F)c1)c1cc(-n2cnn(Cc3ccc(F)cc3)c2=O)n[nH]1` [Example 1, N-(3,4-difluorobenzyl)-3-(1-(4-fluorobenzyl)-5-oxo-1H-1,2,4-triazol-4(5H)-yl)-1H-pyrazole-5-carboxamide], which IC50 [1] is on record?
Answer: Its IC50 is 8 nM.

Question: What about the melting point of the same compound?
Answer: The melting point was 208 to 209 °C.

Question: For `O=C(NCc1ccccn1)c1cc(-n2cnn(Cc3ccc(F)cc3)c2=O)n[nH]1` [Example 8, 3-(1-(4-fluorobenzyl)-5-oxo-1H-1,2,4-triazol-4(5H)-yl)-N-(pyridin-2-ylmethyl)-1H-pyrazole-5-carboxamide], which IC50 [1] is on record?
Answer: The IC50 was 23 nM.

Question: And the melting point?
Answer: The melting point was 224 to 225 °C.

Question: With `O=C(NCc1cocn1)c1cc(-n2cnn(Cc3ccc(F)cc3)c2=O)n[nH]1` [Example 8.6, 3-(1-(4-fluorobenzyl)-5-oxo-1H-1,2,4-triazol-4(5H)-yl)-N-(oxazol-4-ylmethyl)-1H-pyrazole-5-carboxamide] as the compound, how does the IC50 [1] read?
Answer: The IC50 was 165 nM.

Question: And the melting point?
Answer: Its melting point is 267 to 268 °C.

Question: For `O=C(NCc1ccccc1)c1cc(N2CCN(Cc3ccc(F)cc3)C2=O)n[nH]1` [Example 8.3, N-benzyl-3-(3-(4-fluorobenzyl)-2-oxoimidazolidin-1-yl)-1H-pyrazole-5-carboxamide], which IC50 [1] is on record?
Answer: Its IC50 is 11 nM.

Question: With `Cc1cc(CNC(=O)c2cc(-n3cnn(Cc4ccc(F)cc4)c3=O)n[nH]2)no1` [Example 7, 3-(1-(4-fluorobenzyl)-5-oxo-1H-1,2,4-triazol-4(5H)-yl)-N-((5-methylisoxazol-3-yl)methyl)-1H-pyrazole-5-carboxamide] as the compound, how does the IC50 [1] read?
Answer: The IC50 was 22 nM.

Question: What about the melting point of the same compound?
Answer: Its melting point is 276 to 277 °C.

Question: What does the source list for `O=C(NCc1nccs1)c1cc(N2CCN(Cc3ccc(F)cc3)C2=O)n[nH]1` [Example 8.2, 3-(3-(4-fluorobenzyl)-2-oxoimidazolidin-1-yl)-N-(thiazol-2-ylmethyl)-1H-pyrazole-5-carboxamide]?
Answer: IC50 [1]: 8 nM; melting point: 272 to 274 °C

Question: Which IC50 [1] does the source give for `NC(=O)c1cc(-n2cnn(Cc3ccc(F)cc3)c2=O)n[nH]1` [Example 8.5, 3-(1-(4-fluorobenzyl)-5-oxo-1H-1,2,4-triazol-4(5H)-yl)-1H-pyrazole-5-carboxamide] here?
Answer: The IC50 was 488 nM.

Question: And the melting point?
Answer: Its melting point is over 270 °C.

Question: Which results are given for `CNC(=O)c1cc(-n2cnn(Cc3ccc(F)cc3)c2=O)n[nH]1` [Example 2.2, 3-(1-(4-Fluorobenzyl)-5-oxo-1H-1,2,4-triazol-4(5H)-yl)-N-methyl-1H-pyrazole-5-carboxamide]?
Answer: IC50 [1]: 385 nM; melting point: 268 to 269 °C

Question: What does the source list for `O=C(NCc1cccnc1)c1cc(N2CCN(Cc3ccc(F)cc3)C2=O)n[nH]1` [Example 6, 3-(3-(4-fluorobenzyl)-2-oxoimidazolidin-1-yl)-N-(pyridin-3-ylmethyl)-1H-pyrazole-5-carboxamide]?
Answer: IC50 [1]: 3 nM; melting point: 251 to 253 °C

Question: For `O=C(NCc1ccccc1)c1cc(-n2cnn(Cc3ccc(F)cc3)c2=O)n[nH]1` [Example 2.1, N-benzyl-3-(1-(4-fluorobenzyl)-5-oxo-1H-1,2,4-triazol-4(5H)-yl)-1H-pyrazole-5-carboxamide], which IC50 [1] is on record?
Answer: The IC50 was 6 nM.

Question: For `O=C(NCc1cccnc1)c1cc(-n2cnn(Cc3ccc(F)cc3)c2=O)n[nH]1` [Example 2, 3-(1-(4-fluorobenzyl)-5-oxo-1H-1,2,4-triazol-4(5H)-yl)-N-(pyridin-3-ylmethyl)-1H-pyrazole-3-carboxamide], which IC50 [1] is on record?
Answer: The IC50 was 7 nM.

Question: And the melting point?
Answer: The melting point was 235 to 236 °C.

Question: What does the source list for `O=C(NCc1ccncc1)c1cc(-n2cnn(Cc3ccc(F)cc3)c2=O)n[nH]1` [Example 8.8, 3-(1-(4-fluorobenzyl)-5-oxo-1H-1,2,4-triazol-4(5H)-yl)-N-(pyridin-4-ylmethyl)-1H-pyrazole-5-carboxamide]?
Answer: IC50 [1]: 65 nM; melting point: 262 to 263 °C

Question: Which results are given for `O=C(NCc1ccccn1)c1cc(N2CCN(Cc3ccc(F)cc3)C2=O)n[nH]1` [Example 3, 3-(3-(4-fluorobenzyl)-2-oxoimidazolidin-1-yl)-N-(pyridin-2-ylmethyl)-1H-pyrazole-5-carboxamide]?
Answer: IC50 [1]: 45 nM; melting point: 235 to 237 °C

Question: Which IC50 [1] does the source give for `NC(=O)c1cc(N2CCN(Cc3ccc(F)cc3)C2=O)n[nH]1` [Example 8.4, 3-(3-(4-fluorobenzyl)-2-oxoimidazolidin-1-yl)-1H-pyrazole-5-carboxamide] here?
Answer: The IC50 was 368 nM.

Question: And the melting point?
Answer: Its melting point is 256 to 258 °C.

Question: Which results are given for `Cc1cc(CNC(=O)c2cc(N3CCN(Cc4ccc(F)cc4)C3=O)n[nH]2)no1` [Example 5, 3-(3-(4-fluorobenzyl)-2-oxoimidazolidin-1-yl)-N-((5-methylisoxazol-3-yl)methyl)-1H-pyrazole-5-carboxamide]?
Answer: IC50 [1]: 37 nM; melting point: 294 to 296 °C (dec.)

Question: Which results are given for `Cc1cc(CNC(=O)c2cc(N3CCN(Cc4ccc(F)cc4)C3=O)n[nH]2)n[nH]1` [Example 4, 3-(3-(4-fluorobenzyl)-2-oxoimidazolidin-1-yl)-N-((5-methyl-1H-pyrazol-3-yl)methyl)-1H-pyrazole-5-carboxamide]?
Answer: IC50 [1]: 88 nM; melting point: 254 to 255 °C
